# Measured values reported in US4912223A, “1,4-Dihydropyridines” (Nelson Research & Development Co., priority 1988, dated 1990).
# Where a name gives a salt, the structure may show the parent alone.
# Legend:
# [1] = target: T1, DHP Site of the Calcium Channel (Oryctolagus cuniculus, UniProt P07293); assay: Binding Assay for Drugs Acting at the DHP Site of the Calcium Channel (3H-nitrendipine displacement); settings: washed rabbit skeletal muscle membranes, 0.5×10^-9 M 3H-nitrendipine, 30 min, 25° C., pH 7.4
# T1 construct: Washed rabbit skeletal muscle membranes (fraction 2-8X); from tissue; host or cells: rabbit skeletal muscle membranes (fraction 2-8X)
# T1 sequence (P07293 1-1664 limits assumed): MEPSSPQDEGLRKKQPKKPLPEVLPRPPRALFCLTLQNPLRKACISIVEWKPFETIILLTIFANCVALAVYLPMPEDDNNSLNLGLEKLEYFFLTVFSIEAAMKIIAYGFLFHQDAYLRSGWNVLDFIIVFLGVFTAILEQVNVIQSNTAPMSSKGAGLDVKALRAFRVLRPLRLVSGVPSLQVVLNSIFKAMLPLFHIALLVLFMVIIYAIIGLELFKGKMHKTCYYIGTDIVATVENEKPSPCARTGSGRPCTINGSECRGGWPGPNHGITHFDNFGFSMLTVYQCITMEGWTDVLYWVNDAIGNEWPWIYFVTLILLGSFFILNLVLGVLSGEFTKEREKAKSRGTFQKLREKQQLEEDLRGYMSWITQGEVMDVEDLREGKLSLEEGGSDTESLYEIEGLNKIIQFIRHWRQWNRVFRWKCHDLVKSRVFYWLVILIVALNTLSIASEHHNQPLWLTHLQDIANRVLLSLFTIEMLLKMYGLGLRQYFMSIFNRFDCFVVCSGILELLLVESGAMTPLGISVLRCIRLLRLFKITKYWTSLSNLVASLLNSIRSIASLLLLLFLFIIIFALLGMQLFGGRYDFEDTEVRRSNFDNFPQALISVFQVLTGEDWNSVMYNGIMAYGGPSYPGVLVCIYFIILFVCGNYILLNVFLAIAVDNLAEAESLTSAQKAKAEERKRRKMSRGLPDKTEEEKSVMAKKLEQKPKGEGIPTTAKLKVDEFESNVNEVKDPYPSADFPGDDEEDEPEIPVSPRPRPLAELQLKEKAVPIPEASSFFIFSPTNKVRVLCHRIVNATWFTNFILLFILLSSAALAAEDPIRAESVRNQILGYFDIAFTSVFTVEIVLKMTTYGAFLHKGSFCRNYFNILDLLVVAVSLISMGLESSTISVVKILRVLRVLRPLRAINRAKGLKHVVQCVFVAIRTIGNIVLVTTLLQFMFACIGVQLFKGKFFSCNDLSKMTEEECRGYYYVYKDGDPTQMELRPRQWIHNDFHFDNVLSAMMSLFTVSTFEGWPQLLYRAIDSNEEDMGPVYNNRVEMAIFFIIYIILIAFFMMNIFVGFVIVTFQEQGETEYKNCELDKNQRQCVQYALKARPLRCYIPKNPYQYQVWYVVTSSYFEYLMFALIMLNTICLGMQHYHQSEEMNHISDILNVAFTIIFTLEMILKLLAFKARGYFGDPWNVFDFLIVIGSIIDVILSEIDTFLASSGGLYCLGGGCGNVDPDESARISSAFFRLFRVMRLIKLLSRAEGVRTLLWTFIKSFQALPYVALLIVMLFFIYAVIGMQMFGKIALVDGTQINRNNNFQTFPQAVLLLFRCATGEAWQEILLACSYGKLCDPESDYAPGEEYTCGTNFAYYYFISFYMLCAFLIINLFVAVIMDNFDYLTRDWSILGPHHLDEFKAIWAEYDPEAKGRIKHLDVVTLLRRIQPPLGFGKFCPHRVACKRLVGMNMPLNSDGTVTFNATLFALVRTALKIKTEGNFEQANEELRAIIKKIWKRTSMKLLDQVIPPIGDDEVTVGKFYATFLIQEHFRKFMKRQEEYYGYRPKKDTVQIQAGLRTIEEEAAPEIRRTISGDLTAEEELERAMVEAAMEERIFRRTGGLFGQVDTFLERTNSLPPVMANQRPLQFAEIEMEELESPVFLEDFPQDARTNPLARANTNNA
# T1 sequence (P13806 27-960 partner limits assumed): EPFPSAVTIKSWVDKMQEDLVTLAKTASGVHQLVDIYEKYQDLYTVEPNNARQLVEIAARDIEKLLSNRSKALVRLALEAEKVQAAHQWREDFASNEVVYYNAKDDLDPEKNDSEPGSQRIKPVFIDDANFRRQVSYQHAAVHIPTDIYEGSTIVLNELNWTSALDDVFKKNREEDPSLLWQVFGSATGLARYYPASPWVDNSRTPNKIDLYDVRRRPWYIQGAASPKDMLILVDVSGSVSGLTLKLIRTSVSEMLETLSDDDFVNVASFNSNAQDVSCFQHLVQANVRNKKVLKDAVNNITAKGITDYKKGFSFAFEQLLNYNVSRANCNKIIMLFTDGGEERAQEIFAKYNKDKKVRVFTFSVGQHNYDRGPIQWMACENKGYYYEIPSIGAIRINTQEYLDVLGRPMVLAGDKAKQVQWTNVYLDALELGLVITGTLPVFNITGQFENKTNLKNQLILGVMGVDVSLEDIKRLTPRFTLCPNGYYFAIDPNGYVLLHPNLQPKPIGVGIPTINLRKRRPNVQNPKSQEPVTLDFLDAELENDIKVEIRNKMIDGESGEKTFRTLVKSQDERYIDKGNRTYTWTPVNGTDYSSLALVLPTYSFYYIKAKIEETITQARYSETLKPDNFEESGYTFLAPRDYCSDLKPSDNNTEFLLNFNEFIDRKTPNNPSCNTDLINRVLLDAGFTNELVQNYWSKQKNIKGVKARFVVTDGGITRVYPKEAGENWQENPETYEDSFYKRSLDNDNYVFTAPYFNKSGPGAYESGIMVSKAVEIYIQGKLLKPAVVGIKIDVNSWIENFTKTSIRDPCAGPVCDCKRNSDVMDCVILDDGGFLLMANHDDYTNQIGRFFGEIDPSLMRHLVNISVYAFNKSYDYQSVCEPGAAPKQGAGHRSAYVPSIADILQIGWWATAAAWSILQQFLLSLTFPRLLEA
# T1 sequence (P13806 961-1106 partner limits assumed): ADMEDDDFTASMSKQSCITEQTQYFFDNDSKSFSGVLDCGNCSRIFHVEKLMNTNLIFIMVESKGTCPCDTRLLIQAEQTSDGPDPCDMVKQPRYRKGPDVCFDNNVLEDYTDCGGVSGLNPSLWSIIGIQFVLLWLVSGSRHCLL
# T1 sequence (P19517 whole entry partner): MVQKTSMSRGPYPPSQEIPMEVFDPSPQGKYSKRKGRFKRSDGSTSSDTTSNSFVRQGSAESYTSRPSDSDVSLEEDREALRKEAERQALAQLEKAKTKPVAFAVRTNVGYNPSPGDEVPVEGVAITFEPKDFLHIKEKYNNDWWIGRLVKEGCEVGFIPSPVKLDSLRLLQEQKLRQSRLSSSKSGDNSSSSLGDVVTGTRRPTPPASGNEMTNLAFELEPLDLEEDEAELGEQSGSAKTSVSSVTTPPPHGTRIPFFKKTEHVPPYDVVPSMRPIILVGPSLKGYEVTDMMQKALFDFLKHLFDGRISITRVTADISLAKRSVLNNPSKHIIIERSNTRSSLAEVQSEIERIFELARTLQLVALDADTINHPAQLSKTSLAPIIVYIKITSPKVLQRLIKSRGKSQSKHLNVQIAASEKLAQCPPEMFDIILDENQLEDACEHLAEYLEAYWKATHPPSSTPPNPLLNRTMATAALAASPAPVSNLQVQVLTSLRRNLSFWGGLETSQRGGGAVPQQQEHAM
# T1 sequence (P19518 whole entry partner): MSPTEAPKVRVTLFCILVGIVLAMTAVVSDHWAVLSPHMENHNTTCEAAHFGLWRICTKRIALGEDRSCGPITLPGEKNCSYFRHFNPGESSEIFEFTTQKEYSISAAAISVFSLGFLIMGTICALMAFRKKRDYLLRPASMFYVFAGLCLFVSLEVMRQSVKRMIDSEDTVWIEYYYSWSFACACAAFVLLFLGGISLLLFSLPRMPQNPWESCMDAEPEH
# Protocol: The incubation tubes were rapidly chilled in ice and the contents filtered through Whatman GF/B filters on a Millipore manifold, and the filters were placed in scintillation counting vials with 8 ml of Cytoscint cocktail, disrupted mechanically by shaking for 30 minutes and counted.
# Drugs which interact at the DHP site will reduce this specific binding in a dose-dependent manner. The assays for the compounds of this invention were made with logarithmically spaced concentrations, the data were plotted on a probit-concentration plot, and the IC50 read off. The KI of the drug was calculated by standard techniques.
# [2] = test system: Systolic arterial blood pressure; assay: Hypotensive Activity (oral), indirect tail cuff method in spontaneous hypertensive rats (SHR); format: in vivo, spontaneous hypertensive rates (SHR); settings: 10 mmol/Kg in polyethylene glycol
# Protocol: Systolic arterial blood pressure was measured with the indirect tail cuff method in spontaneous hypertensive rates (SHR). The change in baseline pressure (170-210 mm Hg) was recorded at various time points following oral administration of 10 mmol/Kg of the test compound in polyethylene glycol.
# [3] = Water solubility of salt (dissolution in aqueous NaOH, freeze-dried); format: physicochemical
# Protocol: A suspension of 50 mg (0.099 mmol) of the product of Example 2C in 30 ml of water and 1.0 ml (0.099 ) of 0.1N NaOH was stirred at ambient temperature for 15 hours.
# All material was dissolved at this time. The mixture was freeze-dried to give 50 mg (quantitative yield) of a foamy water soluble solid: m.p. 215°-220° C.
# A suspension of 50 mg (0.076 mmol) of the product of Example 6 in 30 ml of water and 1.52 ml (0.152 mmol) of 0.1N NaOH was stirred at ambient temperature for 15 hours. The material was totally dissolved at this time. The mixture was freeze dried to give 50 mg (quantitative yield) of a foamy water-soluble solid: m.p. 225°-232° C.
Ki [1],solubility in water (in words) [3],SMILES,"Mean Change (Decrease) in Systolic Blood Pressure, 120 min after drug administration [2]","Mean Change (Decrease) in Systolic Blood Pressure, 240 min after drug administration [2]","Mean Change (Decrease) in Systolic Blood Pressure, 360 min after drug administration [2]","Mean Change (Decrease) in Systolic Blood Pressure, 12 min after drug administration [2]","Mean Change (Decrease) in Systolic Blood Pressure, 30 min after drug administration [2]","Mean Change (Decrease) in Systolic Blood Pressure, 60 min after drug administration [2]"
4.5 nM,,"COC(=O)C1=C(C)NC(C)=C(C(=O)OCC2COC(C)(C)O2)C1c1cccc([N+](=O)[O-])c1 (stereo not drawn) [Example 1B, 2,6-Dimethyl-3-(2,2-dimethyl-1,3-dioxolan-4-carbomethoxy)-4-(3-nitrophenyl)-5-carbomethoxy-1,4 dihydropyridine]",36 mm Hg,34 mm Hg,19 mm Hg,,,
30 nM,,"COC(=O)C1=C(C)NC(C)=C(C(=O)OCC2OC(=O)C3OC(C)(C)OC23)C1c1cccc([N+](=O)[O-])c1 (stereo not drawn) [Example 2C, 2,6-Dimethyl-3-(carboriboxy-gamma-lactone dimethylketal)-4-(3-nitrophenyl)-5-carbomethoxy-1,4-dihydropyridine]",29 mm Hg,22 mm Hg,20 mm Hg,40 mm Hg,37 mm Hg,31 mm Hg
140 nM,,"COC(=O)C1=C(C)NC(C)=C(C(=O)OCC(O)CO)C1c1cccc([N+](=O)[O-])c1 (stereo not drawn) [Example 4, 2,6-Dimethyl-5-carbomethoxy-4-(3-nitrophenyl)-3-(2,3 dihydroxycarbopropoxy)-1,4-dihydropyridine]",12 mm Hg,6 mm Hg,4 mm Hg,13 mm Hg,16 mm Hg,18 mm Hg
2.3 nM,,"COC(=O)C1=C(C)NC(C)=C(C(=O)OCC2COC3(CCCC3)O2)C1c1cccc([N+](=O)[O-])c1 (stereo not drawn) [Example 4B, 2,6-Dimethyl-5-carbomethoxy-4-(3-nitrophenyl)-3-(1,4-dioxaspiro[4,4]non-2-yl-carbomethoxy)-1,4-dihydropyridine]",17 mm Hg,23 mm Hg,27 mm Hg,,,
29 nM,,"CC1=C(C(=O)OCC2COC(C)(C)O2)C(c2cccc([N+](=O)[O-])c2)C(C(=O)OCC2COC(C)(C)O2)=C(C)N1 (stereo not drawn) [Example 5, 2,6-Dimethyl-3,5-di-(2,2-dimethyl-1,3-dioxolan-4-carbomethoxy)-4-(3-nitrophenyl)-1,4-dihydropyridine]",17 mm Hg,19 mm Hg,19 mm Hg,17 mm Hg,19 mm Hg,13 mm Hg
93 nM,,"CC1=C(C(=O)OCC2OC(=O)C3OC(C)(C)OC23)C(c2cccc([N+](=O)[O-])c2)C(C(=O)OCC2OC(=O)C3OC(C)(C)OC23)=C(C)N1 (stereo not drawn) [Example 6, 2,6-Dimethyl-3,5-di(carboriboxy-gamma-lactone dimethylketal)-4-(3-nitrophenyl)-1,4-dihydropyridine]",,,,,,
,water soluble,"COC(=O)C1=C(C)NC(C)=C(C(=O)OCC(O)C2OC(C)(C)OC2C(=O)O)C1c1cccc([N+](=O)[O-])c1 (stereo not drawn) [Example 11, 2,6-Dimethyl-3-(carboribonic acid-gamma-lactone dimethylketal)(3-nitrophenyl)-5-(carbomethoxy)-1,4-dihydropyridine, sodium salt]",,,,,,
,water-soluble,"CC1=C(C(=O)OCC(O)C2OC(C)(C)OC2C(=O)O)C(c2cccc([N+](=O)[O-])c2)C(C(=O)OCC(O)C2OC(C)(C)OC2C(=O)O)=C(C)N1 (stereo not drawn) [Example 13, 2,6-Dimethyl-3,5-di-(carboribonic acid-gamma-lactone dimethylketal)-4-(3-nitrophenyl-1,4-dihydropyridine, disodium salt]",,,,,,
,,"COC(=O)C1=C(C)NC(C)=C(C(=O)OC)C1c1ccccc1[N+](=O)[O-] [Nifedipine, nifedipine, reference compound]",11 mm Hg,,,6 mm Hg,36 mm Hg,20 mm Hg
